Source: patent US20240209005A1, “BICYCLIC HETEROARYL BORONATE DERIVATIVES AS ECTONUCLEOTIDE PYROPHOSPHATASE PHOSPHODIESTERASE 1 INHIBITORS” (RIBOSCIENCE LLC, priority 2021, published 2024)

Each molecule was assayed against T1, ENPP1 (Homo sapiens, UniProt P22413) (assay: Measurement of pNP-TMP hydrolysis by ENPP1). Conditions: purified ENPP1, pNP-TMP substrate 500 μM, KM 232 μM; Ki calculated from IC50 by Cheng-Prusoff.
T1 sequence (P22413 1-925): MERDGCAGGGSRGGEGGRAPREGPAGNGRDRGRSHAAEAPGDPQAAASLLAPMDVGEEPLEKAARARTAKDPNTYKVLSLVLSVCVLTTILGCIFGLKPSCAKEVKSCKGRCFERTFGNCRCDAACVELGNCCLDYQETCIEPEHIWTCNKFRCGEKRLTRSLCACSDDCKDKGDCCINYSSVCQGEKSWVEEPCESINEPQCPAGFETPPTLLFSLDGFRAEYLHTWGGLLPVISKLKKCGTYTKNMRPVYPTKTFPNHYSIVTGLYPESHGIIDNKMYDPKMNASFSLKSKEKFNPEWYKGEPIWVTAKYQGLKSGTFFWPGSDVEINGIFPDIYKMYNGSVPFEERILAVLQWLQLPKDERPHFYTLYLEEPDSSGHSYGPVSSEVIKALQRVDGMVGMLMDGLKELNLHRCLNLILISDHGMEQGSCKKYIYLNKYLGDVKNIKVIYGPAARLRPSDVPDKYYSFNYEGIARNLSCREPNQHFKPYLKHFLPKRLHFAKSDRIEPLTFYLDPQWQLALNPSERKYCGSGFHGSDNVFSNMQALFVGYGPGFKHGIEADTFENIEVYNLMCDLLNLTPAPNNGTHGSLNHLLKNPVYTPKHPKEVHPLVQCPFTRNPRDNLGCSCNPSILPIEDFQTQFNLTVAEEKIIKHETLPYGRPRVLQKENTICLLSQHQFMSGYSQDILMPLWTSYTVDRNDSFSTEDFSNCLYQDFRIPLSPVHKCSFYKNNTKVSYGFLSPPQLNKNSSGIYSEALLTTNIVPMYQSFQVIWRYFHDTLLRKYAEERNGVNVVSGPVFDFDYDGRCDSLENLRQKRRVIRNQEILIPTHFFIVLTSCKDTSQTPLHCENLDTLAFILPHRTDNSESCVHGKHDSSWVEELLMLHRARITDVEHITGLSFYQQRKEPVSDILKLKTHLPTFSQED
Format: biochemical
Procedure: p-Nitrophenyl thymidine 5′-monophosphate (pNP-TMP) is a synthesized substrate for ENPP1. The ENPP1 enzyme activity assay with pNP-TMP substrate was conducted as follows:
Incubation of ENPP1 with compounds was set at 25° C. for 10 min. […] For each compound dilution, wells with assay buffer (50 mM Tris-HCl, pH8.8, 250 mM NaCl, 0.1 mg/ml BSA, 1% DMSO) only but no ENPP1 were included as controls for subtraction of test compound derived absorbance at 405 nm.
Absorbance at 405 nm was recorded immediately in kinetic mode by PerkinElmer 2300 Enspire multimode plate reader.
For each inhibitor, the specific ENPP1 activity was calculated using the following equation: ENPP1 activity (pmol/min/g)=Adjusted Vmax (OD405 nm/min) X conversion factor (pmol/OD405 nm)/amount of enzyme (g)
Adjusted Vmax=V0×(Km+(S))/(S).
V0=(OD405 nm with ENPP1−OD405 nm ENPP1 blank)/minutes. OD405 nm was plotted, with blank subtracted, against time (minutes), the initial linear rate is V0. […]
The slope is the conversion factor. The percent ENPP1 activity for each sample was calculated using the following equation:
% enzyme activity=sample enzyme activity/MAX Activity×100%.
To determine the IC50 for each compound, compound concentration values and percent enzyme activity values were inserted into GraphPad Prism (GraphPad Prism version 7.0 for Windows, GraphPad Software, La Jolla California USA, www.graphpad.com), and Prism's Transform analysis was used to convert the x-axis values (compound concentration) to logarithms. A sigmoidal variable slope nonlinear regression analysis was performed using the following equation: Y=Bottom+(Top−Bottom)/(1+10^((LogIC50−X)*HillSlope)).

Structure (SMILES) | Ki
CC(C)c1nc(NCc2ccc(B(O)O)cc2)c2c(cnn2C)n1 [compound 6, 4-[([5-isopropyl-1-methylpyrazolo[4,3-d]pyrimidin-7-yl]-amino)methyl]phenylboronic acid] | < 100 nM
N#Cc1c[nH]c2c(NCc3ccc(B(O)O)cc3)ncnc12 [compound 15, 4-[([7-cyano-5H-pyrrolo[3,2-d]pyrimidin-4-yl]amino)methyl]phenylboronic acid] | < 100 nM
CC(=O)Nc1c[nH]c2c(NCc3ccc(B(O)O)cc3)ncnc12 [compound 7, 4-[([7-acetamido-5H-pyrrolo[3,2-d]pyrimidin-4-yl]amino)-methyl]phenylboronic acid] | < 1000 nM

More lines, now with the values ahead:

Ki | Structure (SMILES)
> 10000 nM | CNC(=O)c1n[nH]c2c(NCc3ccc(B(O)O)cc3)ncnc12 [Cpd. 22]
< 100 nM | O=CNc1csc2c(NCc3ccc(B(O)O)cc3)ncnc12 [compound 25, 4-[([7-formamidothieno[3,2-d]pyrimidin-4-yl]amino)-methyl]phenylboronic acid]
< 1000 nM | Cn1ncc2nc(C=Cc3ccccc3)nc(NCc3ccc(B(O)O)cc3)c21 (mixture of isomers) [compound 34, 4-[([1-methyl-5-[2-phenylethenyl]pyrazolo[4,3-d]pyrimidin-7-yl]amino)-methyl]phenylboronic acid]

The molecules below were run on HGS tumor model (assay: Anti-tumor activity in HGS tumor model). Conditions: animals treated with 20/kg of compound, day 42 after inoculation.
Format: in vivo
Source text: […]

Structure (SMILES) | tumor size
C=CC(=O)N1CCN(CCCn2c(=O)c(-c3c(Cl)c(OC)cc(OC)c3Cl)cc3cnc(NC)nc32)CC1 [8-(3-(4-acryloylpiperazin-1-yl)propyl)-6-(2,6-dichloro-3,5-dimethoxyphenyl)-2-(methylamino)pyrido[2,3-d]pyrimidin-7(8H)-one] | 55 mm3
